According to patent US9963467B2, “Boronic acid derivatives and therapeutic uses thereof” (Rempex Pharmaceuticals, Inc., priority 2014, dated 2018):

Experiments:
[1] = test system: ec302 (TEM-10); experiment: Aztreonam potentiation (MPC@4), ec302; format: cell-based; settings: BLI with aztreonam at 4 μg/mL
[2] = target: OXA-48 (Klebsiella pneumoniae, UniProt Q6XEC0); experiment: Ki, nitrocefin cleavage by purified enzyme, OXA-48; format: biochemical; settings: nitrocefin reporter substrate; read-out: Ki (OXA-48, NCF)
OXA-48, sequence (Q6XEC0 23-265, looked up, species assumed): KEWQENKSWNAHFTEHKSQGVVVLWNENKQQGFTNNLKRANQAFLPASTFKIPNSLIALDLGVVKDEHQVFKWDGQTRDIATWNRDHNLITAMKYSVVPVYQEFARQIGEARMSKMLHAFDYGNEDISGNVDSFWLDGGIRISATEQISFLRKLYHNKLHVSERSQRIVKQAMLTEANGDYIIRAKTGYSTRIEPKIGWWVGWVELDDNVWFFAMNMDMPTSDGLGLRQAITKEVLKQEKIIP
Outline: (§1)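 10 min RT preincubation, enzyme with inhibitor series in reaction buffer. Substrate nitrocefin; kinetic read 490 nm, 10 sec intervals, 10 min total.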

[3] = target: Pa AmpC (Pseudomonas aeruginosa, UniProt P24735); experiment: Ki, nitrocefin cleavage by purified enzyme, Pa AmpC; format: biochemical; settings: nitrocefin reporter substrate; read-out: Ki (Pa AmpC, NCF)
Pa AmpC, sequence (P24735 27-397): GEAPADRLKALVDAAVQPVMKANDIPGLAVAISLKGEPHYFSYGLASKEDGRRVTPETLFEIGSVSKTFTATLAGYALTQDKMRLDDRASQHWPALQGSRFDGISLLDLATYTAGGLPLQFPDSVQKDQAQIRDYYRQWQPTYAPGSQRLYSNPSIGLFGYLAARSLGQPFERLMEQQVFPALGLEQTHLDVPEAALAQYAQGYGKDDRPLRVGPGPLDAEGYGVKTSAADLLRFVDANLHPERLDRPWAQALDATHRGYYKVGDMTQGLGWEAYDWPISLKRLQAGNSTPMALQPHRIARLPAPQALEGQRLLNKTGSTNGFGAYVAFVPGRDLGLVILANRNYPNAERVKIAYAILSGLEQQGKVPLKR
Outline: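 Enzyme–inhibitor mixtures, spanning various inhibitor concentrations, were held 10 min at room temperature in reaction buffer prior to nitrocefin addition. Spectrophotometric monitoring of substrate cleavage at 490 nm then ran 10 min at 10-sec intervals to yield Ki.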

[4] = test system: ECL1002; experiment: Tigemonam potentiation (MPC@4), ECL1002; format: cell-based; settings: BLI with tigemonam at 4 μg/mL
[5] = test system: ECL1002; experiment: Aztreonam potentiation (MPC@4), ECL1002; format: cell-based; settings: BLI with aztreonam at 4 μg/mL
[6] = test system: EC1010 (CMY-6); experiment: Tigemonam potentiation (MPC@4), EC1010; format: cell-based; settings: BLI with tigemonam at 4 μg/mL
[7] = test system: KP1004 (KPC-2); experiment: Biapenem potentiation (MPC@1), KP1004; settings: BLI with biapenem at 1 μg/mL
[8] = test system: ec308 (SHV-5); experiment: Tigemonam potentiation (MPC@4), ec308; format: cell-based
[9] = test system: KP1086 (OXA-48); experiment: Biapenem potentiation (MPC@1), KP1086; settings: BLI with biapenem at 1 μg/mL
[10] = target: KPC-2 (Klebsiella pneumoniae, UniProt Q9F663); experiment: Ki, nitrocefin cleavage by purified enzyme, KPC-2; format: biochemical; settings: nitrocefin reporter substrate; read-out: Ki (KPC-2, NCF)
KPC-2, sequence (Q9F663 25-293, looked up, species assumed): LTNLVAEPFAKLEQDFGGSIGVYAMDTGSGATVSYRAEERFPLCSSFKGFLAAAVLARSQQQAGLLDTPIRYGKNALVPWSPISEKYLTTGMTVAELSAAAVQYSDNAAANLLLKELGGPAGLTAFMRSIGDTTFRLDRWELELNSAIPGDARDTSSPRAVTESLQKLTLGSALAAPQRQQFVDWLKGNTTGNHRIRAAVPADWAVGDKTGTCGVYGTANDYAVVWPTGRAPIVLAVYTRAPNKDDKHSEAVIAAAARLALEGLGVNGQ
Outline: as §1

[11] = test system: KP1009 (CTX-M-15); experiment: organism not typed; format: cell-based
[12] = test system: EC1010 (CMY-6); experiment: organism not typed; format: cell-based
[13] = target: CTX-M-14 (Escherichia coli, UniProt Q9L5C7); experiment: Ki, nitrocefin cleavage by purified enzyme, CTX-M-14; format: biochemical; settings: nitrocefin reporter substrate; read-out: Ki (CTX-M-14, NCF)
CTX-M-14, sequence (Q9L5C7 29-291): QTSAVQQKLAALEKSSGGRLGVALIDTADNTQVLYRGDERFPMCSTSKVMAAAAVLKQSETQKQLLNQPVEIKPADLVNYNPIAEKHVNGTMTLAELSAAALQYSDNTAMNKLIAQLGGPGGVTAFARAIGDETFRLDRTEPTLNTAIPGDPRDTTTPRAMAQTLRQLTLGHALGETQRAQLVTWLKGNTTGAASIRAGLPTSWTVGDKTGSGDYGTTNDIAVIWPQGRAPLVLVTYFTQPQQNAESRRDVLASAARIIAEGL
Outline: as §1

[14] = test system: KP1004 (KPC-2); experiment: Aztreonam potentiation (MPC@4), KP1004; format: cell-based; settings: BLI with aztreonam at 4 μg/mL
[15] = test system: KP1009 (CTX-M-15); experiment: Tigemonam potentiation (MPC@4), KP1009; format: cell-based; settings: BLI with tigemonam at 4 μg/mL
[16] = target: P99 (Enterobacter cloacae, UniProt P05364); experiment: Ki, nitrocefin cleavage by purified enzyme, P99; format: biochemical; settings: nitrocefin reporter substrate; read-out: Ki (P99, NCF)
P99, sequence (P05364 21-381): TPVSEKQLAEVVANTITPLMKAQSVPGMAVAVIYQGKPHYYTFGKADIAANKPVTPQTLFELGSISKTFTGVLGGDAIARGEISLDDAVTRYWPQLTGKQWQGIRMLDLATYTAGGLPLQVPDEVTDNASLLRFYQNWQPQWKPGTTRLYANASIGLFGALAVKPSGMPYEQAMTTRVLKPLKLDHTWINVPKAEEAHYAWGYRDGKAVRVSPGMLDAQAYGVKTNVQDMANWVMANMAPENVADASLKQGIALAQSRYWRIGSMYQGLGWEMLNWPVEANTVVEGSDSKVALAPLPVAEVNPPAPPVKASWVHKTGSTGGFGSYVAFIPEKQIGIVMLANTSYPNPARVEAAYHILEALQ
Outline: as §1

[17] = test system: ec302 (TEM-10); experiment: Tigemonam potentiation (MPC@4), ec302; format: cell-based
[18] = test system: KP1010 (SHV-12); experiment: Tigemonam potentiation (MPC@4), KP1010; format: cell-based
[19] = test system: KP1005 (CTX-M-14); experiment: Tigemonam potentiation (MPC@4), KP1005; format: cell-based; settings: BLI with tigemonam at 4 μg/mL
[20] = test system: KP1005 (CTX-M-14); experiment: Aztreonam potentiation (MPC@4), KP1005; format: cell-based; settings: BLI with aztreonam at 4 μg/mL
[21] = target: SHV-12 (Klebsiella pneumoniae, UniProt P0AD64, E235K/G234S/L31Q); experiment: Ki, nitrocefin cleavage by purified enzyme, SHV-12; format: biochemical; settings: nitrocefin reporter substrate; read-out: Ki (SHV-12, NCF)
SHV-12, sequence (P0AD64 22-286 L31Q/G234S/E235K): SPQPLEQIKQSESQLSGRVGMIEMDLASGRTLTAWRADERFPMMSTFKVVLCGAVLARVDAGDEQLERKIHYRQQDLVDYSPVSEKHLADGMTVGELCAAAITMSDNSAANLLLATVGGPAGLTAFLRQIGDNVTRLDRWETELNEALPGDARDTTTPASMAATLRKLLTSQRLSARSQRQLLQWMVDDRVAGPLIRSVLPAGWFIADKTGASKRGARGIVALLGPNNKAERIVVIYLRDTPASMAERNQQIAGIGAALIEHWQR
Outline: as §1

Row | SMILES | AZT MPC4 TEM-10 ec302 [1] | Ki [2] [nM] | Ki [3] [nM] | TIG MPC4 ECL1002 [4] | AZT MPC4 ECL1002 [5] | TIG MPC4 CMY-6 EC1010 [6] | BPM MPC1 KP1004 KPC-2 [7] | TIG MPC4 SHV-5 ec308 [8] | BPM MPC1 OXA-48 KP1086 [9] | Ki [10] [nM] | AZT MPC4 CTX-M-15 KP1009 [11] | AZT MPC4 CMY-6 EC1010 [12] | Ki [13] [nM] | AZT MPC4 KPC-2 KP1004 [14] | TIG MPC4 CTX-M-15 KP1009 [15] | Ki [16] [nM] | TIG MPC4 TEM-10 ec302 [17] | TIG MPC4 SHV-12 KP1010 [18] | TIG MPC4 CTX-M-14 KP1005 [19] | AZT MPC4 CTX-M-14 KP1005 [20] | other results
1 | Nc1nnc(C(=O)N[C@H]2Cc3ccc(F)c(C(=O)O)c3OB2O)s1 [Compound 8, (R)-3-(5-amino-1,3,4-thiadiazole-2-carboxamido)-7-fluoro-2-hydroxy-3,4-dihydro-2H-benzo[e][1,2]oxaborinine-8-carboxylic acid] | Y (MIC of 1 μg/mL to 10 μg/mL) | < 1 | > 10 | Y (MIC of 1 μg/mL to 10 μg/mL) | Y (MIC of 1 μg/mL to 10 μg/mL) | X (MIC of less than 1 μg/mL) | X (MIC of less than 1 μg/mL) | X (key: X: MIC of less than 1 μg/mL; Y: MIC of 1 μg/mL to 10 μg/mL; Z: MIC of greater than 10 μg/mL) | Y (MIC of 1 μg/mL to 10 μg/mL) | > 10 | Y (key: X: MIC of less than 1 ng/mL; Y: MIC of 1 μg/mL to 10 μg/mL; Z: MIC of greater than 10 μg/mL) | Y (key: X: MIC of less than 1 ng/mL; Y: MIC of 1 μg/mL to 10 μg/mL; Z: MIC of greater than 10 μg/mL) | < 1 | Y (MIC of 1 μg/mL to 10 μg/mL) | Y (MIC of 1 μg/mL to 10 μg/mL) | > 10 | Y (key: X: MIC of less than 1 ng/mL; Y: MIC of 1 μg/mL to 10 μg/mL; Z: MIC of greater than 10 μg/mL) | X (key: X: MIC of less than 1 μg/mL; Y: MIC of 1 μg/mL to 10 μg/mL; Z: MIC of greater than 10 μg/mL) | Y (MIC of 1 μg/mL to 10 μg/mL) | Y (MIC of 1 μg/mL to 10 μg/mL) | Ki [21]: < 1 nM
2 | CSCC(=O)N[C@H]1Cc2ccc(Sc3nncn3C)c(C(=O)O)c2OB1O [Compound 35, (R)-2-hydroxy-7-(4-methyl-4H-1,2,4-triazol-3-ylthio)-3-(2-(methylthio)acetamido)-3,4-dihydro-2H-benzo[e][1,2]oxaborinine-8-carboxylic acid] | Y (MIC of 1 μg/mL to 10 μg/mL) | < 1 | > 10 | Y (MIC of 1 μg/mL to 10 μg/mL) | Y (MIC of 1 μg/mL to 10 μg/mL) | Y (MIC of 1 μg/mL to 10 μg/mL) | X (MIC of less than 1 μg/mL) | X (key: X: MIC of less than 1 μg/mL; Y: MIC of 1 μg/mL to 10 μg/mL; Z: MIC of greater than 10 μg/mL) | Z (MIC of greater than 10 μg/mL) | > 10 | Y (key: X: MIC of less than 1 ng/mL; Y: MIC of 1 μg/mL to 10 μg/mL; Z: MIC of greater than 10 μg/mL) | Y (key: X: MIC of less than 1 ng/mL; Y: MIC of 1 μg/mL to 10 μg/mL; Z: MIC of greater than 10 μg/mL) | < 1 | Y (MIC of 1 μg/mL to 10 μg/mL) | Y (MIC of 1 μg/mL to 10 μg/mL) | > 10 | Y (key: X: MIC of less than 1 ng/mL; Y: MIC of 1 μg/mL to 10 μg/mL; Z: MIC of greater than 10 μg/mL) | X (key: X: MIC of less than 1 μg/mL; Y: MIC of 1 μg/mL to 10 μg/mL; Z: MIC of greater than 10 μg/mL) | Y (MIC of 1 μg/mL to 10 μg/mL) | Y (MIC of 1 μg/mL to 10 μg/mL) | Ki [21]: < 1 nM
